Results published in patent publication US9290476B2, “Methylene linked quinolinyl modulators of RORγt” (Janssen Pharmaceutica NV, priority 2012, dated 2016).
Structures can show the parent of a compound that is named as a salt.

Experiments:
[1] = molecular target: human RORγt ligand binding domain (RORγt LBD) (Homo sapiens (Human), UniProt P51449); assay: RORγt ThermoFluor assay (thermal shift binding affinity); conditions: estimated from thermal shift
Procedure: This approach is applicable to a wide variety of systems, and rigorous in theoretical interpretation through quantitation of equilibrium binding constants (KD).
The shift in the melting point described as a ΔTm is proportional to the concentration and affinity of the ligand.
RORγt ThermoFluor® Assay Construct
Protein and compound solutions are dispensed into black 384-well polypropylene PCR microplates (Abgene) and overlayed with silicone oil (1 μL, Fluka, type DC 200) to prevent evaporation.
Bar-coded assay plates are robotically loaded onto a thermostatically controlled PCR-type thermal block and then heated at a typical ramp-rate of 1° C./min for all experiments. Fluorescence was measured by continuous illumination with UV light (Hamamatsu LC6) supplied via fiber optic and filtered through a band-pass filter (380-400 nm; >6 OD cutoff). Fluorescence emission of the entire 384-well plate was detected by measuring light intensity using a CCD camera (Sensys, Roper Scientific) filtered to detect 500±25 nm, resulting in simultaneous and independent readings of all 384 wells. Images were collected at each temperature, and the sum of the pixel intensity in a given area of the assay plate was recorded versus temperature. Reference wells contained RORγt without compounds, and the assay conditions were as follows: • 0.065 mg/mL RORγt • 60 μM 1,8-ANS • 100 mM Hepes, pH 7.0 • 10 mM NaCl • 2.5 mM GSH • 0.002% Tween-20
Project compounds were arranged in a pre-dosed mother plate (Greiner Bio-one) wherein compounds are serially diluted in 100% DMSO by 1:2 from a high concentration of 10 mM over 12 columns within a series (column 12 is a reference well containing DMSO, no compound). The compounds were robotically dispensed directly into assay plates (1×=46 nL) using a Hummingbird capillary liquid handling instrument (Digilab). Following compound dispense, protein and dye in buffer was added to achieve the final assay volume of 3 μL, followed by 1 μL of silicone oil.

human RORγt LBD = human RORγt LBD (Homo sapiens (Human), UniProt P51449); assay: RORγt reporter assay (GAL4-RORγt LBD luciferase in HEK293T cells); format: cell-based; conditions: for IC50 / RORγt reporter Assay, % inhibition @ 6 μM: HEK293T cells; for IC50: 24 hours compound treatment; for inhibition at 6 µM: HEK-293T, read-out: RORγt reporter Assay, % inhibition @ 6 μM, HEK293T cells, 6 μM
human RORγt LBD, sequence (P51449 258-518): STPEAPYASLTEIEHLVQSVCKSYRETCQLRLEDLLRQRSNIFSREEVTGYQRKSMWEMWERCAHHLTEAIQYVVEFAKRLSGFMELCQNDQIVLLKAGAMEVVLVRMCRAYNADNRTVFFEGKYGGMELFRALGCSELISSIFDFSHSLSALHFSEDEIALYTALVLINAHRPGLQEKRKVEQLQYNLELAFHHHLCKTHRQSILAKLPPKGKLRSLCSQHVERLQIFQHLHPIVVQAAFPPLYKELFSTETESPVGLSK
Text: A reporter assay was used to test functional activity of RORγt modulatory compounds on transcriptional activation driven by the RORγt LBD. Cells used in the assay were co-transfected with two constructs. The first construct, pBIND-RORγt LBD, contained the wild type human RORγt LBD fused to the DNA binding domain of the GAL4 protein. The second construct, pGL4.31 (Promega Cat no. C935A), contained multiple GAL4 responsive DNA elements upstream of firefly luciferase. […] The mutant construct was called pBIND-RORγt-AF2.
The pBIND vector contains the GAL4 DNA Binding Domain (GAL4 DBD) and the renilla luciferase gene under control of the SV40 promoter. Renilla luciferase expression serves as a control for transfection efficiency and cell viability.
The reporter assay was performed by transiently transfecting HEK293T cells with 5 ng of pBIND-RORγt LBD or pBIND-RORγt LBD-AF2 and 5 μg pGL4.31 (Promega Cat no. C935A) using Fugene 6 ([…] Cat no. E2691) at a 1:6 ratio of DNA: Fugene 6 in a T-75 flask in which cells were at least 80% confluent. Twenty four hours after bulk transfection, cells were plated into 96-well plates at 50,000 cells/well in phenol-red free DMEM containing 5% Lipid Reduced FCS and Pen/Strep. Six hours after plating, cells were treated with compounds for 24 hours. Media was removed and cells were lysed with 50 μL 1× Glo Lysis Buffer (Promega). Dual Glo Luciferase Reagent (50 μL/well) was then added and firefly luciferase luminescence was read on an Envision after a ten minute incubation. Finally, Stop and Glo reagent (50 μL/well) was added and renilla luciferase luminescence was read on an Envision after a ten minute incubation. To calculate the effect of compounds on RORγt activity, the ratio of firefly to renilla luciferase was determined and plotted against compound concentration. Agonist compounds increase RORγt-driven luciferase expression, and antagonist or inverse agonist compounds decrease luciferase expression.

human RORγt ligand binding domain (RORγt LBD), sequence (P51449 other isoform, or with tags, fused parts or gaps): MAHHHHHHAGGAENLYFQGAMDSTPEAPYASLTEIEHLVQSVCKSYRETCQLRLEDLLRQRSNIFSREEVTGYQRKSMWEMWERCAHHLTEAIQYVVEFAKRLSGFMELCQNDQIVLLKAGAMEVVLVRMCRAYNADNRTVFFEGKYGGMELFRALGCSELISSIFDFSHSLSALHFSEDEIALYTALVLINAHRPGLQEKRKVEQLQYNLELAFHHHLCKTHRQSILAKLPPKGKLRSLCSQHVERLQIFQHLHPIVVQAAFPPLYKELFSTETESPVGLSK

SMILES	Kd [1]	IC50 (human RORγt LBD)	inhibition at 6 µM (human RORγt LBD)	RORγt reporter Assay, % inhibition @ 6 μM (human RORγt LBD)
Cn1cncc1C(O)(c1ccc(C(F)(F)F)nc1)c1ccc2nc(C#N)c(Cc3ccc(-n4cccn4)cc3)cc2c1 (single isomer, unassigned) [Example 70B, 3-(4-(1H-Pyrazol-1-yl)benzyl)-6-(hydroxy(1-methyl-1H-imidazol-5-yl)(6-(trifluoromethyl)pyridin-3-yl)methyl)quinoline-2-carbonitrile]	1.1 µM	1 µM	101%	–
CCc1nc2ccc(C(O)(c3cnnn3C)C3CN(C(C)=O)C3)cc2c(Cl)c1Cc1ccc(C(F)(F)F)cc1 (stereo not drawn) [Example 90A, 1-(3-((4-Chloro-2-ethyl-3-(4-(trifluoromethyl)benzyl)quinolin-6-yl)(hydroxy)(1-methyl-1H-1,2,3-triazol-5-yl)methyl)azetidin-1-yl)ethanone]	0.00044 µM	0.011 µM	98%	–
COc1nc2ccc(C(O)(c3cccnc3)c3cccc(Cl)c3)cc2c(Cl)c1Cc1ccc(F)cc1 (stereo not drawn) [Example 7, (4-Chloro-3-(4-fluorobenzyl)-2-methoxyquinolin-6-yl)(3-chlorophenyl)(pyridin-3-yl)methanol]	0.04 µM	> 6 µM	32%	–
COc1nc2c(F)cc(C(O)(c3ccc(C(F)(F)F)nc3)c3cncn3C)cc2c(Cl)c1Cc1ccc(-n2cccn2)cc1 (single isomer, unassigned) [Example 58C, (3-(4-(1H-pyrazol-1-yl)benzyl)-4-chloro-8-fluoro-2-methoxyquinolin-6-yl)(1-methyl-1H-imidazol-5-yl)(6-(trifluoromethyl)pyridin-3-yl)methanol]	0.27 µM	0.66 µM	–	109%
COc1nc2ccc(C(O)(c3ccc(Cl)cc3)c3cncn3C)cc2c(C#N)c1Cc1ccc(-n2cccn2)cc1 (stereo not drawn) [Example 69, 3-(4-(1H-Pyrazol-1-yl)benzyl)-6-((4-chlorophenyl)(hydroxy)(1-methyl-1H-imidazol-5-yl)methyl)-2-methoxyquinoline-4-carbonitrile]	0.05 µM	0.17 µM	103%	–
CCc1nc2ccc(C(O)(c3cnnn3C)C3CN(C(=O)OC(C)(C)C)C3)cc2c(Cl)c1Cc1ccc(C(F)(F)F)cc1 (stereo not drawn) [Example 89, tert-Butyl 3-((4-chloro-2-ethyl-3-(4-(trifluoromethyl)benzyl)quinolin-6-yl)(hydroxy)(1-methyl-1H-1,2,3-triazol-5-yl)methyl)azetidine-1-carboxylate]	0.00077 µM	0.021 µM	102%	–
COc1ccc(C(O)(c2ccc3nc(Cl)c(Cc4ccccc4)c(Cl)c3c2)c2cncs2)cn1 (stereo not drawn) [Example 18, (3-Benzyl-2,4-dichloroquinolin-6-yl)(6-methoxypyridin-3-yl)(thiazol-5-yl)methanol]	0.0045 µM	> 6 µM	41%	–
COc1nc2c(C)cc(C(O)(c3cncn3C)c3cncn3C)cc2c(Cl)c1Cc1ccc(S(C)(=O)=O)cc1 [Example 57, (4-Chloro-2-methoxy-8-methyl-3-(4-(methylsulfonyl)benzyl)quinolin-6-yl)bis(1-methyl-1H-imidazol-5-yl)methanol.Succinate]	0.0084 µM	0.057 µM	100%	–
Cn1cncc1C(O)(c1ccc(Cl)cc1)c1ccc2nc(O)c(Cc3ccc(-n4cccn4)cc3)c(Cl)c2c1 (stereo not drawn) [Example 55A, 3-(4-(1H-Pyrazol-1-yl)benzyl)-4-chloro-6-((4-chlorophenyl)(hydroxy)(1-methyl-1H-imidazol-5-yl)methyl)quinolin-2-ol]	7.6 µM	1.7 µM	94%	–
Cn1cncc1C(O)(c1ccc(Cl)cc1)c1ccc2nc(O)c(Cc3ccc(-n4cccn4)cc3)c(Cl)c2c1 (single isomer, unassigned) [Example 55B, 3-(4-(1H-pyrazol-1-yl)benzyl)-4-chloro-6-((4-chlorophenyl)(hydroxy)(1-methyl-1H-imidazol-5-yl)methyl)quinolin-2-ol]	> 81 µM	2.4 µM	85%	–
CCN(CC)c1nc2ccc(C(O)(c3ccc(C(F)(F)F)nc3)c3cncn3C)cc2c(C#N)c1Cc1ccc(-n2cccn2)cc1 (single isomer, unassigned) [Example 74C, 3-(4-(1H-Pyrazol-1-yl)benzyl)-2-(diethylamino)-6-(hydroxy(1-methyl-1H-imidazol-5-yl)(6-(trifluoromethyl)pyridin-3-yl)methyl)quinoline-4-carbonitrile]	21 µM	0.93 µM	–	90%
COc1nc2ccc(C(O)(c3ccc(F)cc3)c3cncn3C)cc2c(Cl)c1Cc1ccc(S(C)(=O)=O)cc1 (single isomer, unassigned) [Example 54B, (4-chloro-2-methoxy-3-(4-(methylsulfonyl)benzyl)quinolin-6-yl)(4-fluorophenyl)(1-methyl-1H-imidazol-5-yl)methanol]	0.84 µM	2 µM	86%	–

The remaining molecules from weak to strong by Kd [1], led by results:

Kd [1]	IC50 (human RORγt LBD)	inhibition at 6 µM (human RORγt LBD)	RORγt reporter Assay, % inhibition @ 6 μM (human RORγt LBD)	SMILES
3.5 µM	3.2 µM	–	92%	Cn1cncc1C(O)(c1ccc(Cl)cc1)c1ccc2nc(O)c(Cc3ccc(-n4cccn4)cc3)c(Cl)c2c1 (single isomer, unassigned) [Example 55C, 3-(4-(1H-pyrazol-1-yl)benzyl)-4-chloro-6-((4-chlorophenyl)(hydroxy)(1-methyl-1H-imidazol-5-yl)methyl)quinolin-2-ol]
1.6 µM	1.1 µM	90%	–	COc1nc2c(C)cc(C(O)(c3ccc(Cl)cc3)c3cncn3C)cc2c(Cl)c1Cc1ccc(-n2cccn2)cc1 (single isomer, unassigned) [Example 28B, (3-(4-(1H-pyrazol-1-yl)benzyl)-4-chloro-2-methoxy-8-methylquinolin-6-yl)(4-chlorophenyl)(1-methyl-1H-imidazol-5-yl)methanol]
0.22 µM	0.57 µM	–	108%	COc1nc2c(OC)cc(C(O)(c3ccc(C(F)(F)F)nc3)c3cncn3C)cc2c(Cl)c1Cc1ccc(-n2cccn2)cc1 (single isomer, unassigned) [Example 59C, (3-(4-(1H-pyrazol-1-yl)benzyl)-4-chloro-2,8-dimethoxyquinolin-6-yl)(1-methyl-1H-imidazol-5-yl)(6-(trifluoromethyl)pyridin-3-yl)methanol]
0.099 µM	2.3 µM	77%	–	OC(c1cccnc1)(c1ccc2nc(Cl)c(Cc3cccc(Cl)c3)cc2c1)c1cncs1 (stereo not drawn) [Example 10]
0.031 µM	~1 µM	70%	–	COc1ccc(Cc2c(OC)nc3ccc(C(O)(c4ccc(Cl)cc4)c4cncn4C)cc3c2Cl)cc1 (stereo not drawn) [Example 13, (4-Chloro-2-methoxy-3-(4-methoxybenzyl)quinolin-6-yl)(4-chlorophenyl)(1-methyl-1H-imidazol-5-yl)methanol.TFA]
0.012 µM	0.069 µM	98%	–	COc1nc2ccc(C(O)(c3ccc(C(F)(F)F)nc3)c3cncn3C)cc2c(Cl)c1Cc1ccc(C(F)(F)F)nc1 (stereo not drawn) [Example 94A, (4-Chloro-2-methoxy-3-((6-(trifluoromethyl)pyridin-3-yl)methyl)quinolin-6-yl)(1-methyl-1H-imidazol-5-yl)(6-(trifluoromethyl)pyridin-3-yl)methanol]
